Assays:
rape = assay: Test B pre/postemergence rape; type: in vivo, Brassica napus
Procedure, shortened: (§1)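 Herbicidal effect was estimated by eye on a ten-point control scale after plants spent twelve to sixteen days in a greenhouse following soil or foliar treatment. Foliar sprays targeted plants at one to four leaves; all doses were formulated in a non-phytotoxic solvent with surfactant.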

smallflower flatsedge = assay: Test B flood test smallflower flatsedge; type: in vivo, Cyperus difformis
Procedure, shortened: (§2)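 Plants were grown to the 2-leaf stage before treatment with test chemical, then held in a greenhouse for twelve to sixteen days. Injury was visually rated against untreated controls on a 0–10 scale, where 0 is no effect and 10 is complete control.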

giant foxtail = assay: Test B pre/postemergence giant foxtail; type: in vivo, Setaria faberii
Procedure, shortened: as §1

wheat = assay: Test B pre/postemergence wheat; type: in vivo, Triticum aestivum
Procedure, shortened: as §1

wild oat = assay: Test B pre/postemergence wild oat; type: in vivo, Avena fatua
Procedure, shortened: as §1

cocklebur = assay: Test B pre/postemergence cocklebur; type: in vivo, Xanthium strumarium
Procedure, shortened: as §1

duck salad = assay: Test B flood test duck salad; type: in vivo, Heteranthera limosa
Procedure, shortened: as §2

crabgrass = assay: Test B pre/postemergence crabgrass; type: in vivo, Digitaria sanguinalis
Procedure, shortened: as §1

rice = assay: Test B flood test rice; type: in vivo, Oryza sativa
Procedure, shortened: as §2

morningglory = assay: Test B pre/postemergence morningglory; type: in vivo, Ipomoea hederacea
Procedure, shortened: as §1

corn = assay: Test B pre/postemergence corn; type: in vivo, Zea mays
Procedure, shortened: as §1

soybean = assay: Test B pre/postemergence soybean; type: in vivo, Glycine max
Procedure, shortened: as §1

velvetleaf = assay: Test B pre/postemergence velvetleaf; type: in vivo, Abutilon theophrasti
Procedure, shortened: as §1

sugar beet = assay: Test B pre/postemergence sugar beet; type: in vivo, Beta vulgaris
Procedure, shortened: as §1

pigweed = assay: Test B pre/postemergence pigweed; type: in vivo, Amaranthus retroflexus
Procedure, shortened: as §1

purple nutsedge = assay: Test B pre/postemergence purple nutsedge; type: in vivo, Cyperus rotundus
Procedure, shortened: as §1

[1] = Postemergence, Rate 1000 g/ha, scale 0 to 10 (0 no effect, 10 complete control)
[2] = Preemergence, Rate 62 g/ha, scale of 0 to 10 where 0 is no effect and 10 is complete control
[3] = Preemergence, Rate 125 g/ha, 0 is no effect, 10 is complete control
[4] = Preemergence, Rate 250 g/ha, scale 0 to 10, 0 is no effect, 10 is complete control
[5] = Preemergence, Rate 500 g/ha, scale 0 to 10 (0 no effect, 10 complete control)
[6] = Rate 62 g/ha, Postemergence, scale of 0 to 10 where 0 is no effect and 10 is complete control
[7] = Rate 125 g/ha, Postemergence, scale 0 to 10
[8] = Rate 500 g/ha, Postemergence, scale 0 to 10
[9] = Rate 1000 g/ha, Preemergence, scale 0 to 10 (0 no effect, 10 complete control)
[10] = Rate 2000 g/ha, Postemergence, scale 0 to 10
[11] = Rate 2000 g/ha, Preemergence, scale 0 to 10
[12] = Rate 62 g/ha, headed Pre-emergence (flood test species), scale 0 to 10 (0 no effect, 10 complete control)
[13] = Rate 125 g/ha, Pre-emergence, flood test species, scale 0 to 10 where 0 is no effect and 10 is complete control
[14] = Rate 250 g/ha, Pre-emergence, flood-test species, scale 0 to 10, 0 is no effect, 10 is complete control
[15] = Rate 2000 g/ha, Pre-emergence (as headed), scale 0 to 10
[16] = Rate 500 g/ha, headed Pre-emergence (flood test species), scale 0 to 10 (0 no effect, 10 complete control)
[17] = Rate 1000 g/ha, Pre-emergence (as headed), scale 0 to 10

## CCN(C(=O)n1oc(=O)n(N(C)c2ccccc2)c1=O)C1CCCCC1 [Compound 183]
rape; [1]
  Rape plant response rating: 0
rape; [2]
  Rape plant response rating: 0
rape; [3]
  Rape plant response rating (0 to 10 scale): 0
rape; [4]
  Rape plant response rating: 0
rape; [5]
  Rape plant response rating: 0
rape; [6]
  Rape plant response rating: 0
rape; [7]
  Rape plant response rating: 0
rape; Rate 250 g/ha, Postemergence
  Plant response rating (0 to 10; 0 is no effect, 10 is complete control), Rape: 0
rape; [8]
  Rape plant response rating: 0
rape; [9]
  Plant response rating, Rape: 0
rape; [10]
  Rape plant response rating: 0
rape; [11]
  Rape plant response rating: 0
Smallflower flatsedge; Pre-emergence, Rate 1000 g/ha, scale 0 to 10 (0 no effect, 10 complete control)
  S. Flatsedge plant response rating: 0
Smallflower flatsedge; [12]
  S. Flatsedge plant response rating: 0
Smallflower flatsedge; [13]
  S. Flatsedge plant response rating: 0
Smallflower flatsedge; [14]
  S. Flatsedge plant response rating: 0
Smallflower flatsedge; Rate 500 g/ha, Pre-emergence, flood test species, scale 0 to 10 (0 no effect, 10 complete control)
  S. Flatsedge plant response rating: 0
Smallflower flatsedge; [15]
  S. Flatsedge plant response rating: 0
Giant foxtail; [1]
  Giant foxtail plant response rating: 0
Giant foxtail; [2]
  Giant foxtail plant response rating: 0
Giant foxtail; [3]
  Giant foxtail plant response rating (0 to 10 scale): 0
Giant foxtail; [4]
  Giant foxtail plant response rating: 0
Giant foxtail; [5]
  Giant foxtail plant response rating: 3
Giant foxtail; [6]
  Giant foxtail plant response rating: 0
Giant foxtail; [7]
  Giant foxtail plant response rating: 0
Giant foxtail; Rate 250 g/ha, Postemergence
  Plant response rating (0 to 10; 0 is no effect, 10 is complete control), Giant foxtail: 0
Giant foxtail; [8]
  Giant foxtail plant response rating: 0
Giant foxtail; [9]
  Plant response rating, Giant foxtail: 6
Giant foxtail; [10]
  Giant foxtail plant response rating: 0
Giant foxtail; [11]
  Giant foxtail plant response rating: 9
wheat; [1]
  Wheat plant response rating: 0
wheat; [2]
  Wheat plant response rating: 0
wheat; [4]
  Wheat plant response rating: 0
wheat; [5]
  Wheat plant response rating: 0
wheat; [7]
  Wheat plant response rating: 0
wheat; Rate 250 g/ha, Postemergence
  Plant response rating (0 to 10; 0 is no effect, 10 is complete control), Wheat: 0
wheat; [8]
  Wheat plant response rating: 0
wheat; [9]
  Plant response rating, Wheat: 0
wheat; [10]
  Wheat plant response rating: 0
wheat; [11]
  Wheat plant response rating: 0
Wild oat; [1]
  Wild oats plant response rating: 0
Wild oat; [2]
  Wild oats plant response rating: 0
Wild oat; [4]
  Wild oats plant response rating: 0
Wild oat; [5]
  Wild oats plant response rating: 0
Wild oat; [7]
  Wild oats plant response rating: 0
Wild oat; Rate 250 g/ha, Postemergence
  Plant response rating (0 to 10; 0 is no effect, 10 is complete control), Wild oats: 0
Wild oat; [8]
  Wild oats plant response rating: 0
Wild oat; [9]
  Plant response rating, Wild oats: 0
Wild oat; [10]
  Wild oats plant response rating: 0
Wild oat; [11]
  Wild oats plant response rating: 3
cocklebur; [1]
  Cocklebur plant response rating: 0
cocklebur; [2]
  Cocklebur plant response rating: 0
cocklebur; [3]
  Cocklebur plant response rating (0 to 10 scale): 0
cocklebur; [4]
  Cocklebur plant response rating: 0
cocklebur; [5]
  Cocklebur plant response rating: 0
cocklebur; [6]
  Cocklebur plant response rating: 0
cocklebur; [7]
  Cocklebur plant response rating: 0
cocklebur; Rate 250 g/ha, Postemergence
  Plant response rating (0 to 10; 0 is no effect, 10 is complete control), Cocklebur: 0
cocklebur; [8]
  Cocklebur plant response rating: 0
cocklebur; [9]
  Plant response rating, Cocklebur: 0
cocklebur; [10]
  Cocklebur plant response rating: 2
cocklebur; [11]
  Cocklebur plant response rating: 0
Duck salad; [12]
  Ducksalad plant response rating: 0
Duck salad; [13]
  Ducksalad plant response rating: 0
Duck salad; [14]
  Ducksalad plant response rating: 0
Duck salad; [16]
  Plant response rating, Ducksalad: 0
Duck salad; [17]
  Ducksalad plant response rating: 0
Duck salad; [15]
  Ducksalad plant response rating: 0
crabgrass; [1]
  Crabgrass plant response rating: 0
crabgrass; [2]
  Crabgrass plant response rating: 0
crabgrass; [3]
  Crabgrass plant response rating (0 to 10 scale): 0
crabgrass; [4]
  Crabgrass plant response rating: 0
crabgrass; [5]
  Crabgrass plant response rating: 3
crabgrass; [6]
  Crabgrass plant response rating: 0
crabgrass; [7]
  Crabgrass plant response rating: 0
crabgrass; Rate 250 g/ha, Postemergence
  Plant response rating (0 to 10; 0 is no effect, 10 is complete control), Crabgrass: 0
crabgrass; [8]
  Crabgrass plant response rating: 0
crabgrass; [9]
  Plant response rating, Crabgrass: 0
crabgrass; [10]
  Crabgrass plant response rating: 0
crabgrass; [11]
  Crabgrass plant response rating: 2
rice; [12]
  Rice plant response rating: 0
rice; [13]
  Rice plant response rating: 0
rice; [14]
  Rice plant response rating: 0
rice; [16]
  Plant response rating, Rice: 0
rice; [17]
  Rice plant response rating: 0
rice; [15]
  Rice plant response rating: 0
morningglory; [1]
  Morningglory plant response rating: 4
morningglory; [2]
  Morningglory plant response rating: 0
morningglory; [3]
  Morningglory plant response rating (0 to 10 scale): 0
morningglory; [4]
  Morningglory plant response rating: 0
morningglory; [5]
  Morningglory plant response rating: 0
morningglory; [6]
  Morningglory plant response rating: 0
morningglory; [7]
  Morningglory plant response rating: 0
morningglory; Rate 250 g/ha, Postemergence
  Plant response rating (0 to 10; 0 is no effect, 10 is complete control), Morningglory: 1
morningglory; [8]
  Morningglory plant response rating: 2
morningglory; [9]
  Plant response rating, Morningglory: 0
morningglory; [10]
  Morningglory plant response rating: 5
morningglory; [11]
  Morningglory plant response rating: 0
corn; [1]
  Corn plant response rating: 0
corn; [2]
  Corn plant response rating: 0
corn; [3]
  Corn plant response rating (0 to 10 scale): 0
corn; [4]
  Corn plant response rating: 0
corn; [5]
  Corn plant response rating: 0
corn; [6]
  Corn plant response rating: 0
corn; [7]
  Corn plant response rating: 0
corn; Rate 250 g/ha, Postemergence
  Plant response rating (0 to 10; 0 is no effect, 10 is complete control), Corn: 0
corn; [8]
  Corn plant response rating: 0
corn; [9]
  Plant response rating, Corn: 0
corn; [10]
  Corn plant response rating: 0
corn; [11]
  Corn plant response rating: 0
soybean; [1]
  Soybean plant response rating: 2
soybean; [2]
  Soybean plant response rating: 0
soybean; [3]
  Soybean plant response rating (0 to 10 scale): 0
soybean; [4]
  Soybean plant response rating: 0
soybean; [5]
  Soybean plant response rating: 0
soybean; [6]
  Soybean plant response rating: 0
soybean; [7]
  Soybean plant response rating: 1
soybean; Rate 250 g/ha, Postemergence
  Plant response rating (0 to 10; 0 is no effect, 10 is complete control), Soybean: 2
soybean; [8]
  Soybean plant response rating: 2
soybean; [9]
  Plant response rating, Soybean: 0
soybean; [10]
  Soybean plant response rating: 3
soybean; [11]
  Soybean plant response rating: 0
velvetleaf; [1]
  Velvetleaf plant response rating: 1
velvetleaf; [2]
  Velvetleaf plant response rating: 0
velvetleaf; [4]
  Velvetleaf plant response rating: 0
velvetleaf; [5]
  Velvetleaf plant response rating: 0
velvetleaf; [7]
  Velvetleaf plant response rating: 0
velvetleaf; Rate 250 g/ha, Postemergence
  Plant response rating (0 to 10; 0 is no effect, 10 is complete control), Velvetleaf: 0
velvetleaf; [8]
  Velvetleaf plant response rating: 0
velvetleaf; [9]
  Plant response rating, Velvetleaf: 0
velvetleaf; [10]
  Velvetleaf plant response rating: 1
velvetleaf; [11]
  Velvetleaf plant response rating: 0
Sugar beet; [1]
  Sugarbeets plant response rating: 0
Sugar beet; [2]
  Sugarbeets plant response rating: 0
Sugar beet; [3]
  Sugarbeets plant response rating (0 to 10 scale): 0
Sugar beet; [4]
  Sugarbeets plant response rating: 0
Sugar beet; [5]
  Sugarbeets plant response rating: 0
Sugar beet; [6]
  Sugarbeets plant response rating: 0
Sugar beet; [7]
  Sugarbeets plant response rating: 0
Sugar beet; Rate 250 g/ha, Postemergence
  Plant response rating (0 to 10; 0 is no effect, 10 is complete control), Sugarbeets: 0
Sugar beet; [8]
  Sugarbeets plant response rating: 0
Sugar beet; [9]
  Plant response rating, Sugarbeets: 0
Sugar beet; [10]
  Sugarbeets plant response rating: 0
Sugar beet; [11]
  Sugarbeets plant response rating: 0
pigweed; [1]
  Redroot pigweed plant response rating: 0
pigweed; [2]
  Redroot pigweed plant response rating: 0
pigweed; [3]
  Redroot pigweed plant response rating (0 to 10 scale): 0
pigweed; [4]
  Redroot pigweed plant response rating: 0
pigweed; [5]
  Redroot pigweed plant response rating: 0
pigweed; [6]
  Redroot pigweed plant response rating: 0
pigweed; [7]
  Redroot pigweed plant response rating: 0
pigweed; Rate 250 g/ha, Postemergence
  Plant response rating (0 to 10; 0 is no effect, 10 is complete control), Redroot pigweed: 0
pigweed; [8]
  Redroot pigweed plant response rating: 0
pigweed; [9]
  Plant response rating, Redroot pigweed: 0
pigweed; [10]
  Redroot pigweed plant response rating: 0
pigweed; [11]
  Redroot pigweed plant response rating: 0
Purple nutsedge; [1]
  Nutsedge plant response rating: 0
Purple nutsedge; [2]
  Nutsedge plant response rating: 0
Purple nutsedge; [3]
  Nutsedge plant response rating (0 to 10 scale): 0
Purple nutsedge; [4]
  Nutsedge plant response rating: 0
Purple nutsedge; [5]
  Nutsedge plant response rating: 0
Purple nutsedge; [6]
  Nutsedge plant response rating: 0
Purple nutsedge; [7]
  Nutsedge plant response rating: 0
Purple nutsedge; Rate 250 g/ha, Postemergence
  Plant response rating (0 to 10; 0 is no effect, 10 is complete control), Nutsedge: 0
Purple nutsedge; [8]
  Nutsedge plant response rating: 0
Purple nutsedge; [9]
  Plant response rating, Nutsedge: 0
Purple nutsedge; [10]
  Nutsedge plant response rating: 0
Purple nutsedge; [11]
  Nutsedge plant response rating: 0
